Data taken from the NIST ThermoML archive (doi:10.1007/s10765-006-0110-x).

Settings: Liquid, Pulse-echo method

COCCOCCOC [2,5,8-trioxanonane]
speed of sound [m/s]
Settings	293.15 K	303.15 K	313.15 K	323.15 K	333.15 K	343.15 K	353.15 K
100 kPa	1298.9	1259.3	1219.9	1180.9	1142.4	1104.2	1066.6
10000 kPa	1344.9	1306.7	1269.5	1232.5	1196.4	1160.8	1125.7
20000 kPa	1386.5	1350.6	1315.4	1280.2	1246	1212	1179.3
30000 kPa	1426.6	1392	1357.6	1324.4	1291.4	1259.5	1228.1
40000 kPa	1463.9	1430.4	1397.8	1365.5	1333.7	1303.1	1273.4
50000 kPa	1499.2	1466.9	1435.3	1404	1373.6	1343.9	1314.9
60000 kPa	1532.5	1501.5	1470.5	1440.6	1410.9	1382.1	1354.4
70000 kPa	1565.1	1534.3	1504.4	1475.2	1446.2	1418.6	1391.3
80000 kPa	1595.5	1565.8	1536.7	1508.2	1480.1	1452.9	1426.7
90000 kPa	1624.9	1595.9	1567.6	1539.8	1512.3	1485.9	1460.4
100000 kPa	1653.4	1625.1	1597	1569.9	1543.1	1517.4	1492.3

COCCOC [1,2-dimethoxyethane]
speed of sound [m/s]
Settings	293.15 K	303.15 K	313.15 K	323.15 K	333.15 K	343.15 K	353.15 K
100 kPa	1188.5	1144.8	1101.9	1059.4	1016.5	974.9	932.8
10000 kPa	1242	1201.1	1161.1	1122.4	1083.1	1044.7	1005.8
20000 kPa	1292.4	1252.2	1215.2	1178.7	1142.7	1107	1070
30000 kPa	1336.4	1299.6	1263.9	1229.3	1195.2	1161.4	1127.3
40000 kPa	1378.8	1343.2	1309.2	1275.9	1243.6	1211.6	1178.9
50000 kPa	1418.2	1384.1	1350.7	1319.6	1288.4	1257.6	1226.3
60000 kPa	1455.6	1422.5	1390.5	1361.5	1330.1	1300.5	1270.4
70000 kPa	1490.4	1458	1428.3	1398.6	1369.3	1340.5	1311.3
80000 kPa	1523.9	1492.6	1463.3	1434.7	1406.4	1378.6	1350.2
90000 kPa	1555.7	1525.7	1497	1468.9	1441.3	1414.5	1387
100000 kPa	1586.1	1557.2	1528.8	1501.5	1474.8	1448.7	1421.7
